Source: patent US8053573B2, “Monomer 5, 6-diphenyl-1.2.4-traizinic derivatives and the use thereof” (Pierre Fabre Dermo-Cosmetique, priority 2004, dated 2011)
Several values for one entry are separate records, joined by “and”; a condition that tells them apart may be missing. Equal values may be shown once.

Legend:
Format in all cases: physicochemical
[1] = Spectral characteristics: molar extinction coefficient and specific absorbance; conditions: ethyl acetate, 10 μg/ml; for Maximum specific absorbance UVB / Maximum specific absorbance UVA: A1cm^1%
Description: The calculation of the molar extinction coefficient (ε) is made from the Beer-Lambert law:
[formula] Wherein: A=absorbance I0=intensity of the incident light I=intensity of the transmitted light ε=molar extinction (or molar absorbance) coefficient in M^−1 cm^−1 l=path length in cm c=concentration in mol/l
The molar extinction coefficient can be expressed with respect to a given mass of the product. It thus makes it possible to be able to compare the coefficients of extinction between products for the same given quantity. This quantity is 1% by weight. The molar extinction coefficient thus becomes the specific absorbance (A1cm^1%).
[formula] Wherein: A1cm^1%=specific absorbance ε=molar extinction coefficient M=molar mass
The spectral characteristics of the compounds in comparison with commercial filters at a concentration of 10 μg/ml are summarized in tables 2-1 and 2-2.
Procedure: The products are dissolved in ethyl acetate to a concentration of 10 μg/ml. The spectra are measured using a dual-beam spectrophotometer (Varian CARY 50 Scan) between 290 nm and 400 nm.

[2] = Spectral distribution in UVA and UVB (290-400 nm); conditions: range from 290 nm to 400 nm
Description: The products tested are classified according to spectral distribution in UVA and UVB in a range from 290 nm to 400 nm.
It is possible to differentiate them according to their spectral distribution:
Products with a narrow spectrum: • Products absorbing in the range between 280 nm and 320 nm (UVB) • Products absorbing in the range between 320 nm and 400 nm (UVA) Products with a broad spectrum: • Products absorbing in UVB (280-320 nm) and UVA-II […] • Products covering UVB and UVA (280-400 nm).

[3] = In vitro SPF in a chemical solvent (Diffey and Robson); conditions: ethyl acetate solution, 10 μg/ml, transmittance 290-400 nm
Procedure: The in vitro methods of determining the protective effectiveness of sun products consist of measuring by transmission spectrophotometry the absorption spectrum of the filter in solution or of the product applied on a substrate with the aim of simulating the surface of the skin. The effectiveness against UVB and/or UVA rays, or the effect on the cutaneous response, are then determined by calculation, taking into account or not the UV radiation action spectrum for the damage considered.
The Sayre/Agin and Diffey/Robson method, used since the 1990s, involves a comparative measurement, with the aid of an integrating-sphere spectroradiometer, of the transition from 290 nm to 400 nm in 5 nm steps, the sample being subjected to UV radiation from a stable known source covering the whole of the UV spectrum (unfiltered xenon).
Diffey and Robson evaluate the erythemal response by the following calculation:
[formula] E(λ)=spectral irradiation in W(m^−2) (nm^−1) at 40° N sun at 20° zenith angle ε=erythematous capacity
The Diffey and Robson formula makes it possible to determine SPF from the measurement of transmittance between 290 nm and 400 nm. Transmittance is measured in solution in ethyl acetate at a concentration of 10 μg/ml using a UV-visible spectrophotometer (Varian CARY 50 Scan).

[4] = In vitro SPF in a primary formula (gel on PMMA plates); conditions: PMMA plate, 1.2 mg/cm^2
Procedure: PMMA (polymethyl methacrylate) plates (50×50 mm, supplied by Europlast) were used.
The dose applied in the in vivo solar product evaluation protocols (2 mg/cm^2) is too high for the type of substrate employed here.
Gels were formulated from the triazines that are objects of this invention and certain reference filters. The molecules are solubilized in Transcutol® CG in a water bath. The solution is then placed under magnetic stirring and a gelling agent, Klucel HF (hydroxypropyl cellulose), is added at a concentration of 2%. Stirring is maintained for 30 minutes. SPF is measured using a Labsphere UV-1000 S Transmittance Analyzer spectrophotometer (Labsphere, North Sutton, N.H., USA).

[5] = Photostability in solution in a chemical solvent (Suntest CPS+); conditions: 25 μg deposited from methanol, absorbance vs non-irradiated control, in % (unit assumed); for Photostability at 10 MED mean: Suntest irradiation 10 MED; for Photostability at 20 MED mean: Suntest irradiation 20 MED
Description: A Suntest CPS+ (Atlas, Linsengenicht/Altenhasslan, Germany) was used. The Suntest makes it possible to reproduce the solar spectrum and thus to carry out exposures inside at any time without weather constraints.
The radiance of the solar simulator was carefully measured with a spectroradiometer (MSS 2044, Bielefeld, Germany). UVB and UVA intensities were 0.49 mW/cm^2 and 6.32 mW/cm^2, respectively. The MED value defined by COLIPA is 5.6 J/cm^2 in total UV (22). The UV total (UVA+UVB) accounts for 14.8% of the energy delivered by the lamp (power 460 W/m^2). An irradiation dose equivalent to 1 MED corresponds to 37.83 J/cm^2 (in total spectrum) delivered by the lamp.
The Suntest test duration is calculated using the following formula: t=H/E with: […]
The solutions of the compounds are prepared at a concentration of 500 μg/ml in methanol. 50 μl (25 μg) of each solution are deposited in a crystallizer, then irradiated in the Suntest at 5, 10 and/or 20 MED. A non-irradiated control is prepared (deposit of 50 μl of solution and addition of 2.450 ml of methanol). The solvent evaporates during irradiation and the products are taken up in 2.5 ml of methanol. After irradiation, the absorbance of each solution is measured with the UV-visible spectrophotometer (Varian CARY 50 Scan).

[6] = Solubility study in solvents or excipients used in cosmetics
[7] = Spectral characteristics: molar extinction coefficient and specific absorbance; conditions: ethyl acetate, 10 μg/ml
[8] = single filter 3% in Transcutol CG / Klucel HF gel
[9] = Finsol V NT ® (C12-C15 alkyl benzoate)

SMILES: COc1ccc(-c2nnc(-c3ccc(O)cc3)nc2-c2ccc(OC)cc2)cc1 [JR65, 3-(4-hydroxyphenyl)-5,6-bis(4-methoxyphenyl)-1,2,4-triazine]
- Maximum specific absorbance UVB [1]: 809
- Maximum molar extinction coefficient UVB [1]: 31100 M⁻¹ cm⁻¹
- Wavelength of maximum molar extinction coefficient UVB [1]: at 315
- Wavelength of maximum specific absorbance UVB [1]: at 315
- Spectral distribution [2]: absorb in UVB
- SPF [3]: 68.21
- SPF [4, 8]: 9.8 and 10.9
- Photostability at 10 MED mean [5]: 96.91
- Photostability at 20 MED mean [5]: 85.5
- Solubility (%) ([6]; Arlasolve DMI ® (dimethyl isosorbide)): 8%
- Solubility (%) ([6]; Butylene glycol): 5%
- Solubility (%) ([6]; Cetiol SN ® (decyl oleate)): 1%
- Solubility (%) ([6]; Cetiol V ® (cetearyl isononanoate)): 2%
- Solubility (%) [6, 9]: 1%
- Solubility (%) ([6]; Hexylene glycol): 5%
- Solubility (%) ([6]; Isopropyl adipate): 2%
- Solubility (%) ([6]; Isopropyl myristate): 5%
- Solubility (%) ([6]; Myritol 318 ® (caprylic/capric triglycerides)): 0.5%
- Solubility (%) ([6]; PEG400 ® (polyethylene glycol)): 5%

SMILES: CCCCC(CC)COC(=O)C=Cc1ccc(OC)cc1 (stereo not shown) [Parsol MCX ®, reference compound]
- Maximum specific absorbance UVB [1]: 848
- Maximum molar extinction coefficient UVB [1]: 24600 M⁻¹ cm⁻¹
- Wavelength of maximum molar extinction coefficient UVB [1]: at 310
- Wavelength of maximum specific absorbance UVB [1]: at 310
- SPF [3]: 20.78
- SPF ([4]; single filter 5% in Transcutol CG / Klucel HF gel): 17.2
- Photostability at 10 MED mean [5]: 33.38
- Photostability at 20 MED mean [5]: 11.63

SMILES: CCCCC(CC)COc1ccc(-c2nc(-c3ccc(OC)cc3)nc(-c3ccc(OCC(CC)CCCC)cc3O)n2)c(O)c1 (stereo not shown) [Tinosorb S ®, reference compound]
- Maximum specific absorbance UVA [1]: 789
- Maximum specific absorbance UVB [1]: 751
- Maximum molar extinction coefficient UVA [1]: 49580 M⁻¹ cm⁻¹
- Maximum molar extinction coefficient UVB [1]: 47150 M⁻¹ cm⁻¹
- Wavelength of maximum molar extinction coefficient UVA [1]: at 345
- Wavelength of maximum molar extinction coefficient UVB [1]: at 310
- Wavelength of maximum specific absorbance UVA [1]: at 345
- Wavelength of maximum specific absorbance UVB [1]: at 310
- Spectral distribution [2]: absorb in UVB and UVA
- SPF [3]: 76.19
- SPF [4, 8]: 9.8

SMILES: COc1ccc(-c2nnc(N)nc2-c2ccc(OC)cc2)cc1 [JR77, 3-amino-5,6-bis(4-methoxyphenyl)-1,2,4-triazine]
- Maximum specific absorbance UVA [1]: 249
- Maximum molar extinction coefficient UVA [1]: 7600 M⁻¹ cm⁻¹
- Wavelength of maximum molar extinction coefficient UVA [1]: at 360
- Wavelength of maximum specific absorbance UVA [1]: at 360
- Spectral distribution [2]: absorb in UVB (280-320 nm) and UVA-II (280-340 nm)
- SPF [3]: 47.16
- Photostability at 10 MED mean [5]: 73.03
- Photostability at 20 MED mean [5]: 61.14
- Maximum specific absorbance UVC ([7]; A1cm^1%): 631
- Maximum molar extinction coefficient UVC [7]: 19300 M⁻¹ cm⁻¹
- Wavelength of maximum molar extinction coefficient UVC [7]: at 280
- Wavelength of maximum specific absorbance UVC [7]: at 280

SMILES: CCCCCCCCCCCCOc1ccc(-c2nnc(-c3ccc(OC)cc3)c(-c3ccc(OC)cc3)n2)cc1 [JR173, 3-(4-dodecyloxyphenyl)-5,6-bis(4-methoxyphenyl)-1,2,4-triazine]
- Maximum specific absorbance UVB [1]: 878 at
- Maximum molar extinction coefficient UVB [1]: 48600 M⁻¹ cm⁻¹
- Wavelength of maximum molar extinction coefficient UVB [1]: at 305
- Wavelength of maximum specific absorbance UVB [1]: 305
- Spectral distribution [2]: absorb in UVB
- SPF [3]: 69.02
- Solubility (%) [6, 9]: 7%
- Solubility (%) ([6]; PEG400 ® (polyethylene glycol)): 2%
